This note sets out measurements from patent US20250144223A1, “PROTEIN DEGRADATION COMPOUND BASED ON NAMPT TARGET PROTEIN AND APPLICATION THEREOF” (GLUETACS THERAPEUTICS (SHANGHAI) CO., LTD., priority 2021, published 2025).

SMILES strings stand for the structures. pIC50: −log10 of the molar value.

The assay concerns Jurkat. The assay is described as follows: CellTiter-Glo Luminescent Cell Viability Assay, half inhibitory concentration (IC50) on tumor cell proliferation. It is filed as cell-based. The following applies: Homo sapiens, Jurkat cells, 72 h treatment. The protocol: The tumor cells used herein were cultured in a cell culture medium at 37° C. in an incubator with 5% CO2, where the cell culture medium was supplemented with 10% FBS, as well as penicillin at a final concentration of 100 U/mL and streptomycin at a final concentration of 100 μg/mL. Prior to experimentation, all cells used were identified as correct cells by STR cells, and were negative for mycoplasma through routine testing.
IC50 values of the compounds of the present disclosure (including the compounds in Table 1 and compounds of examples) were measured using the CellTiter-Glo® Luminescent Cell Viability Assay kit from Promega Corporation. Assay details are as follows: Cells were seeded in 100 μL RPMI1640 medium containing serum at a density of 20,000 cells/well. After 24 h, the inoculated cells were treated with the compounds of the present disclosure which were serially diluted. After the cells were treated with the compounds of the present disclosure for 72 h, the CellTiter-Glo® reagent was added to the culture medium for cell viability assessment according to the instructions provided with the kit. DMSO served as the negative control, and FK866 inhibitor was used as the positive control, both treated with the same protocol as the compounds of the present disclosure. The growth inhibition of the compounds of the present disclosure on cells was plotted by Prism Graphpad software, and the IC50 values of the compounds of the present disclosure were calculated therefrom.
Background: In ATP-based viability assays light output follows the ATP content of the culture.
The term pIC50 denotes −log10 of the IC50, conventionally taken in molar units. A lower pIC50 goes with a high IC50. For the compound `O=C(/C=C/c1cccnc1)NCCCCC1CCN(C(=O)c2ccc(N3CCN(C(=O)COCCOCCOCCOCCOCCSc4cccc5c4C(=O)N(C4CCC(=O)NC4=O)C5=O)CC3)cc2)CC1` (centres unmarked) [SIAIS631115, (E)-N-(4-(1-(4-(4-(17-((2-(2,6-dioxopiperidin-3-yl)-1,3-dioxoisoindolin-4-yl)thio)-3,6,9,12,15-pentaoxaheptadecanoyl)piperazin-1-yl)benzoyl)piperidin-4-yl)butyl)-3-(pyridin-3-yl)acrylamide], the pIC50 is 7.13. With `O=C(/C=C/c1cccnc1)NCCCCC1CCN(C(=O)c2ccc(N3CCN(C(=O)COCCOCCOCCOCCOCCSc4cccc5c4CN(C4CCC(=O)NC4=O)C5=O)CC3)cc2)CC1` (centres unmarked) [SIAIS631118, (E)-N-(4-(1-(4-(4-(17-((2-(2,6-dioxopiperidin-3-yl)-1-oxoisoindolin-4-yl)thio)-3,6,9,12,15-pentaoxaheptadecanoyl)piperazin-1-yl)benzoyl)piperidin-4-yl)butyl)-3-(pyridin-3-yl)acrylamide], the pIC50 is 7.18. The pIC50 values of the last two compounds are within 0.2 log units of each other. To `O=C(/C=C/c1cccnc1)NCCCCC1CCN(C(=O)c2ccc(N3CCN(CCCC#Cc4cccc5c4C(=O)N(C4CCC(=O)NC4=O)C5=O)CC3)cc2)CC1` (centres unmarked) [SIAIS631119, (E)-N-(4-(1-(4-(4-(5-(2-(2,6-dioxopiperidin-3-yl)-1,3-dioxoisoindolin-4-yl)pent-4-yn-1-yl)piperazin-1-yl)benzoyl)piperidin-4-yl)butyl)-3-(pyridin-3-yl)acrylamide] belongs 6.21; to `O=C(/C=C/c1cccnc1)NCCCCC1CCN(C(=O)c2ccc(N3CCN(CCCCC#Cc4cccc5c4C(=O)N(C4CCC(=O)NC4=O)C5=O)CC3)cc2)CC1` (centres unmarked) [SIAIS631120, (E)-N-(4-(1-(4-(4-(6-(2-(2,6-dioxopiperidin-3-yl)-1,3-dioxoisoindolin-4-yl)hex-5-yn-1-yl)piperazin-1-yl)benzoyl)piperidin-4-yl)butyl)-3-(pyridin-3-yl)acrylamide], 7.15. In the case of `O=C(/C=C/c1cccnc1)NCCCCC1CCN(C(=O)c2ccc(N3CCN(CCCCCCC#Cc4cccc5c4C(=O)N(C4CCC(=O)NC4=O)C5=O)CC3)cc2)CC1` (centres unmarked) [SIAIS631121, (E)-N-(4-(1-(4-(4-(8-(2-(2,6-dioxopiperidin-3-yl)-1,3-dioxoisoindolin-4-yl)oct-7-yn-1-yl)piperazin-1-yl)benzoyl)piperidin-4-yl)butyl)-3-(pyridin-3-yl)acrylamide] it was 7.19; in that of `O=C(/C=C/c1cccnc1)NCCCCC1CCN(C(=O)c2ccc(N3CCC(N4CCNCC4)CC3)nn2)CC1` [SIAIS631135, (E)-N-(4-(1-(6-(4-(piperazin-1-yl)piperidin-1-yl)pyridazine-3-carbonyl)piperidin-4-yl)butyl)-3-(pyridin-3-yl)acrylamide], 6.14; in that of `O=C(/C=C/c1cccnc1)NCCCCC1CCN(C(=O)c2ccc(C3CCN(CCCCCC#Cc4cccc5c4CN(C4CCC(=O)NC4=O)C5=O)CC3)cc2)CC1` (centres unmarked) [SIAIS631139, (E)-N-(4-(1-(4-(1-(7-(2-(2,6-dioxopiperidin-3-yl)-1-oxoisoindolin-4-yl)hept-6-yn-1-yl)piperidin-4-yl)benzoyl)piperidin-4-yl)butyl)-3-(pyridin-3-yl)acrylamide], 8.28. Turning to `O=C(/C=C/c1cccnc1)NCCCCC1CCN(C(=O)c2ccc(C3CCN(CCCCCCC#Cc4cccc5c4CN(C4CCC(=O)NC4=O)C5=O)CC3)cc2)CC1` (centres unmarked) [SIAIS631140, (E)-N-(4-(1-(4-(1-(8-(2-(2,6-dioxopiperidin-3-yl)-1-oxoisoindolin-4-yl)oct-7-yn-1-yl)piperidin-4-yl)benzoyl)piperidin-4-yl)butyl)-3-(pyridin-3-yl)acrylamide], the pIC50 was 8.01. `O=C(/C=C/c1cccnc1)NCCCCC1CCN(C(=O)c2ccc(C3CCN(CCCCSc4cccc5c4CN(C4CCC(=O)NC4=O)C5=O)CC3)cc2)CC1` (centres unmarked) [SIAIS631141, (E)-N-(4-(1-(4-(1-(4-((2-(2,6-dioxopiperidin-3-yl)-1-oxoisoindolin-4-yl)thio)butyl)piperidin-4-yl)benzoyl)piperidin-4-yl)butyl)-3-(pyridin-3-yl)acrylamide] gave a pIC50 of 8.27. In the case of `O=C(/C=C/c1cccnc1)NCCCCC1CCN(C(=O)c2ccc(N3CCNCC3)nn2)CC1` [SIAIS632004, (E)-N-(4-(1-(6-(piperazin-1-yl)pyridazine-3-carbonyl)piperidin-4-yl)butyl)-3-(pyridin-3-yl)acrylamide] it was 6.44. Compound `O=C(/C=C/c1cccnc1)NCCCCC1CCN(C(=O)c2ccc(N3CCC(N4CCN(CCCCCC#Cc5cccc6c5CN(C5CCC(=O)NC5=O)C6=O)CC4)CC3)nn2)CC1` (centres unmarked) [SIAIS632005, (E)-N-(4-(1-(6-(4-(4-(7-(2-(2,6-dioxopiperidin-3-yl)-1-oxoisoindolin-4-yl)hept-6-yn-1-yl)piperazin-1-yl)piperidin-1-yl)pyridazine-3-carbonyl)piperidin-4-yl)butyl)-3-(pyridin-3-yl)acrylamide] showed a pIC50 of 8.40. In the case of `O=C(/C=C/c1cccnc1)NCCCCC1CCN(C(=O)c2ccc(N3CCC(N4CCN(CCCCCCC#Cc5cccc6c5CN(C5CCC(=O)NC5=O)C6=O)CC4)CC3)nn2)CC1` (centres unmarked) [SIAIS632006, (E)-N-(4-(1-(6-(4-(4-(8-(2-(2,6-dioxopiperidin-3-yl)-1-oxoisoindolin-4-yl)oct-7-yn-1-yl)piperazin-1-yl)piperidin-1-yl)pyridazine-3-carbonyl)piperidin-4-yl)butyl)-3-(pyridin-3-yl)acrylamide] it was 8.19; in that of `O=C(/C=C/c1cccnc1)NCCCCC1CCN(C(=O)c2ccc(N3CCC(N4CCN(CCCCSc5cccc6c5CN(C5CCC(=O)NC5=O)C6=O)CC4)CC3)nn2)CC1` (centres unmarked) [SIAIS632007, (E)-N-(4-(1-(6-(4-(4-(4-((2-(2,6-dioxopiperidin-3-yl)-1-oxoisoindolin-4-yl)thio)butyl)piperazin-1-yl)piperidin-1-yl)pyridazine-3-carbonyl)piperidin-4-yl)butyl)-3-(pyridin-3-yl)acrylamide], 8.45; in that of `O=C(/C=C/c1cccnc1)NCCCCC1CCN(C(=O)c2ccc(N3CCN(CCCCCC#Cc4cccc5c4CN(C4CCC(=O)NC4=O)C5=O)CC3)nn2)CC1` (centres unmarked) [SIAIS632010, (E)-N-(4-(1-(6-(4-(7-(2-(2,6-dioxopiperidin-3-yl)-1-oxoisoindolin-4-yl)hept-6-yn-1-yl)piperazin-1-yl)pyridazine-3-carbonyl)piperidin-4-yl)butyl)-3-(pyridin-3-yl)acrylamide], 8.08. In turn, `O=C(/C=C/c1cccnc1)NCCCCC1CCN(C(=O)c2ccc(N3CCN(CCCCCCC#Cc4cccc5c4CN(C4CCC(=O)NC4=O)C5=O)CC3)nn2)CC1` (centres unmarked) [SIAIS632011, (E)-N-(4-(1-(6-(4-(8-(2-(2,6-dioxopiperidin-3-yl)-1-oxoisoindolin-4-yl)oct-7-yn-1-yl)piperazin-1-yl)pyridazine-3-carbonyl)piperidin-4-yl)butyl)-3-(pyridin-3-yl)acrylamide] had a pIC50 of 8.03. As for `O=C(/C=C/c1cccnc1)NCCCCC1CCN(C(=O)c2ccc(N3CCN(CCCCSc4cccc5c4CN(C4CCC(=O)NC4=O)C5=O)CC3)nn2)CC1` (centres unmarked) [SIAIS632012, (E)-N-(4-(1-(6-(4-(4-((2-(2,6-dioxopiperidin-3-yl)-1-oxoisoindolin-4-yl)thio)butyl)piperazin-1-yl)pyridazine-3-carbonyl)piperidin-4-yl)butyl)-3-(pyridin-3-yl)acrylamide], the pIC50 is 8.78. To `O=C(/C=C/c1cccnc1)NCCCCC1CCN(C(=O)c2ccc(N3CCN(C(=O)CNc4cccc5c4CN(C4CCC(=O)NC4=O)C5=O)CC3)cc2)CC1` (centres unmarked) [SIAIS632014, (E)-N-(4-(1-(4-(4-((2-(2,6-dioxopiperidin-3-yl)-1-oxoisoindolin-4-yl)glycyl)piperazin-1-yl)benzoyl)piperidin-4-yl)butyl)-3-(pyridin-3-yl)acrylamide] belongs 8.17; to `O=C(/C=C/c1cccnc1)NCCCCC1CCN(C(=O)c2ccc(N3CCN(C(=O)CCCNc4cccc5c4CN(C4CCC(=O)NC4=O)C5=O)CC3)cc2)CC1` (centres unmarked) [SIAIS632015, (E)-N-(4-(1-(4-(4-(4-((2-(2,6-dioxopiperidin-3-yl)-1-oxoisoindolin-4-yl)amino)butanoyl)piperazin-1-yl)benzoyl)piperidin-4-yl)butyl)-3-(pyridin-3-yl)acrylamide], 6.28.

With `O=C(/C=C/c1cccnc1)NCCCCC1CCN(C(=O)c2ccc(N3CCN(C(=O)CCCCNc4cccc5c4CN(C4CCC(=O)NC4=O)C5=O)CC3)cc2)CC1` (centres unmarked) [SIAIS632016, (E)-N-(4-(1-(4-(4-(5-((2-(2,6-dioxopiperidin-3-yl)-1-oxoisoindolin-4-yl)amino)pentanoyl)piperazin-1-yl)benzoyl)piperidin-4-yl)butyl)-3-(pyridin-3-yl)acrylamide], the pIC50 was 7.19. To `O=C(/C=C/c1cccnc1)NCCCCC1CCN(C(=O)c2ccc(N3CCN(C(=O)CCCCCNc4cccc5c4CN(C4CCC(=O)NC4=O)C5=O)CC3)cc2)CC1` (centres unmarked) [SIAIS632017, (E)-N-(4-(1-(4-(4-(6-((2-(2,6-dioxopiperidin-3-yl)-1-oxoisoindolin-4-yl)amino)hexanoyl)piperazin-1-yl)benzoyl)piperidin-4-yl)butyl)-3-(pyridin-3-yl)acrylamide] belongs 7.67.
